Experimental data from PubChem BioAssay (NCI).
“And” between values parts separate entries of the source, which are not always exact repeats. Equal values may be shown once.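 Growth conditions: 96-well plates. Treatment: test compound, 48 hours, 5 concentrations. Analysis: linear interpolation between bracketing concentrations; unreached endpoints set to highest concentration. GI50: concentration for 50% inhibition of growth. TGI marks complete inhibition of growth.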

Legend:
Test in all cases: NCI-60 cell line screen, 48 h
UACC-62 melanoma = test system: UACC-62 melanoma
LXFL 529 NSCLC = test system: LXFL 529 NSCLC
HCT-15 colon = test system: HCT-15 colon
M19-MEL melanoma = test system: M19-MEL melanoma
OVCAR-3 ovarian = test system: OVCAR-3 ovarian
HCT-116 colon = test system: HCT-116 colon
RXF 393 renal = test system: RXF 393 renal
MALME-3M melanoma = test system: MALME-3M melanoma
MOLT-4 leukemia = test system: MOLT-4 leukemia
TK-10 renal = test system: TK-10 renal

## CC(C)=Cc1cc(C(=O)Nc2ccc(Cl)c(Cl)c2)nc(N)n1
UACC-62 melanoma
  TGI: > 100 µM
LXFL 529 NSCLC
  TGI: > 100 µM
HCT-15 colon
  TGI: > 100 µM
M19-MEL melanoma
  TGI: > 100 µM
OVCAR-3 ovarian
  TGI: > 100 µM
HCT-116 colon
  TGI: > 100 µM
RXF 393 renal
  TGI: > 100 µM
MALME-3M melanoma
  TGI: > 100 µM
MOLT-4 leukemia
  TGI: > 100 µM
TK-10 renal
  TGI: > 100 µM

## O=C(/C=C\c1ccc(Cl)c(Cl)c1)c1ccc(Cl)cc1Cl
UACC-62 melanoma
  TGI: 35.6 µM
LXFL 529 NSCLC
  TGI: 21.2 µM
HCT-15 colon
  GI50: 58 µM
  TGI: > 100 µM
M19-MEL melanoma
  TGI: 81.1 µM
OVCAR-3 ovarian
  TGI: 35.7 µM
HCT-116 colon
  GI50: 2.68 µM
  TGI: > 100 µM
RXF 393 renal
  TGI: 39.7 µM
MALME-3M melanoma
  TGI: 35.5 µM
MOLT-4 leukemia
  TGI: 7.86 µM and 48.4 µM

## CC(C)OP(=O)(OC(C)C)C(=NCCN=C(NNc1ccc([N+](=O)[O-])cc1)P(=O)(OC(C)C)OC(C)C)NNc1ccc([N+](=O)[O-])cc1
UACC-62 melanoma
  TGI: 36.7 µM
LXFL 529 NSCLC
  TGI: > 100 µM
HCT-15 colon
  TGI: > 100 µM
M19-MEL melanoma
  TGI: > 100 µM
OVCAR-3 ovarian
  TGI: 33.4 µM
HCT-116 colon
  TGI: > 100 µM
MALME-3M melanoma
  TGI: > 100 µM
MOLT-4 leukemia
  TGI: > 100 µM
TK-10 renal
  TGI: > 100 µM

## COc1cc2c(c(OC)c1OC)-c1ccc(OC)c(=O)cc1C(NC(=O)c1ccc(N=[N+]=[N-])cc1)CC2 (centres undefined)
UACC-62 melanoma
  TGI: 31.1 µM
LXFL 529 NSCLC
  TGI: > 47.2 µM
HCT-15 colon
  TGI: 0.561 µM
M19-MEL melanoma
  TGI: > 73.2 µM
OVCAR-3 ovarian
  TGI: 0.0555 µM
HCT-116 colon
  TGI: 18.2 µM
RXF 393 renal
  TGI: 0.061 µM
MALME-3M melanoma
  TGI: > 100 µM
MOLT-4 leukemia
  TGI: 9.82 µM
TK-10 renal
  TGI: > 100 µM

## CC(=O)OC1COC(n2ccc3cc(Br)c([N+](=O)[O-])cc32)C(OC(C)=O)C1OC(C)=O (centres undefined)
UACC-62 melanoma
  TGI: 46.5 µM
LXFL 529 NSCLC
  TGI: > 100 µM
HCT-15 colon
  TGI: > 100 µM
M19-MEL melanoma
  TGI: > 100 µM
OVCAR-3 ovarian
  TGI: 65.6 µM
RXF 393 renal
  TGI: > 100 µM
MALME-3M melanoma
  TGI: 72.5 µM
TK-10 renal
  TGI: 81.7 µM

## Cn1c2ccccc2c2cc(-c3ccccc3)c3c(c21)C(=O)c1ccccc1C3=O
UACC-62 melanoma
  TGI: 30.1 µM
LXFL 529 NSCLC
  TGI: 29.3 µM
M19-MEL melanoma
  TGI: 6.47 µM
OVCAR-3 ovarian
  TGI: 36.4 µM
HCT-116 colon
  TGI: 36.3 µM
MALME-3M melanoma
  TGI: 49.6 µM
MOLT-4 leukemia
  TGI: 92.7 µM
TK-10 renal
  TGI: > 100 µM

## CC(=O)/C(=C\c1cccc([N+](=O)[O-])c1)C(=O)Nc1ccccc1C
UACC-62 melanoma
  TGI: > 100 µM
LXFL 529 NSCLC
  TGI: > 100 µM
HCT-15 colon
  TGI: > 100 µM
M19-MEL melanoma
  TGI: > 100 µM
OVCAR-3 ovarian
  TGI: > 100 µM
HCT-116 colon
  TGI: > 100 µM
RXF 393 renal
  TGI: > 100 µM
MALME-3M melanoma
  TGI: > 100 µM
MOLT-4 leukemia
  TGI: > 100 µM
TK-10 renal
  TGI: > 100 µM

## CC(=O)OC1=CC(n2cc(F)c(=O)[nH]c2=O)OC(C)C1=O (centres undefined)
UACC-62 melanoma
  TGI: > 100 µM
LXFL 529 NSCLC
  TGI: > 100 µM
HCT-15 colon
  TGI: > 100 µM
M19-MEL melanoma
  TGI: > 100 µM
OVCAR-3 ovarian
  TGI: > 100 µM
HCT-116 colon
  TGI: > 100 µM
RXF 393 renal
  TGI: > 100 µM
MALME-3M melanoma
  TGI: > 100 µM
MOLT-4 leukemia
  TGI: > 100 µM
TK-10 renal
  TGI: > 100 µM

## Clc1ccc(C(c2ccc(Cl)cc2)c2ccccn2)cc1
UACC-62 melanoma
  TGI: 33.4 µM
LXFL 529 NSCLC
  TGI: 35.3 µM
HCT-15 colon
  TGI: 38 µM
M19-MEL melanoma
  TGI: > 100 µM
RXF 393 renal
  TGI: 28.2 µM
MALME-3M melanoma
  TGI: 41.2 µM
MOLT-4 leukemia
  TGI: 56.6 µM
TK-10 renal
  TGI: 45.3 µM

## Nc1ncnc2c1nnn2C1OC(CO)C(O)C1O (centres undefined)
UACC-62 melanoma
  TGI: 4.72 µM
HCT-15 colon
  TGI: 20.6 µM
M19-MEL melanoma
  TGI: 39.2 µM
OVCAR-3 ovarian
  TGI: 9.26 µM
HCT-116 colon
  TGI: 10.5 µM
RXF 393 renal
  GI50: 0.271 µM
  TGI: 1.51 µM
MALME-3M melanoma
  TGI: 4.62 µM
MOLT-4 leukemia
  TGI: 22.2 µM
TK-10 renal
  GI50: 0.151 µM
  TGI: 3.39 µM

## Brc1ccccc1C1SCc2nc3ccccc3n21 (centres undefined)
LXFL 529 NSCLC
  TGI: 77.9 µM
HCT-15 colon
  TGI: 25.4 µM
M19-MEL melanoma
  TGI: 34.8 µM
OVCAR-3 ovarian
  TGI: 26.7 µM
HCT-116 colon
  TGI: 26 µM
RXF 393 renal
  TGI: 23.3 µM
MALME-3M melanoma
  TGI: 48 µM
MOLT-4 leukemia
  TGI: > 100 µM
TK-10 renal
  TGI: 49.3 µM

## CCc1cc(Cc2cc(CC)c(NC(=O)C(=O)Cc3ccccn3)c(CC)c2Cl)c(Cl)c(CC)c1NC(=O)C(=O)Cc1ccccn1
UACC-62 melanoma
  TGI: > 100 µM
LXFL 529 NSCLC
  TGI: > 100 µM
HCT-15 colon
  TGI: > 100 µM
M19-MEL melanoma
  TGI: > 100 µM
OVCAR-3 ovarian
  TGI: > 100 µM
HCT-116 colon
  TGI: > 100 µM
MALME-3M melanoma
  TGI: > 100 µM
MOLT-4 leukemia
  TGI: > 100 µM
TK-10 renal
  TGI: > 100 µM

## C#CC1(O)CCC2C3CCc4cc(Oc5nc(F)nc(-c6c7ccccc7c7sc8ccccc8n67)n5)ccc4C3CC[C@@]21C (some centres undefined)
UACC-62 melanoma
  TGI: > 100 µM
LXFL 529 NSCLC
  TGI: > 100 µM
HCT-15 colon
  TGI: > 100 µM
M19-MEL melanoma
  TGI: > 100 µM
OVCAR-3 ovarian
  TGI: > 100 µM
HCT-116 colon
  TGI: > 100 µM
MALME-3M melanoma
  TGI: > 100 µM
MOLT-4 leukemia
  TGI: > 100 µM
TK-10 renal
  TGI: > 100 µM

## COC(OC)C(C)CC(=O)N(C)C (centres undefined)
UACC-62 melanoma
  TGI: > 100 µM
LXFL 529 NSCLC
  TGI: > 100 µM
HCT-15 colon
  TGI: > 100 µM
M19-MEL melanoma
  TGI: > 100 µM
OVCAR-3 ovarian
  TGI: > 100 µM
HCT-116 colon
  TGI: > 100 µM
MOLT-4 leukemia
  TGI: > 100 µM
TK-10 renal
  TGI: > 100 µM

## CCOC(=O)CC(=O)ON(C)C(C)=O
UACC-62 melanoma
  TGI: > 100 µM
LXFL 529 NSCLC
  TGI: > 100 µM
HCT-15 colon
  TGI: > 100 µM
M19-MEL melanoma
  TGI: > 100 µM
OVCAR-3 ovarian
  TGI: > 100 µM
HCT-116 colon
  TGI: > 100 µM
MALME-3M melanoma
  TGI: > 100 µM
MOLT-4 leukemia
  TGI: > 100 µM
TK-10 renal
  TGI: > 100 µM

## O=c1cc(-c2ccccc2)oc2cc(OCCCOc3ccc4c(=O)cc(-c5ccccc5)oc4c3)ccc12
UACC-62 melanoma
  TGI: > 100 µM
LXFL 529 NSCLC
  TGI: > 100 µM
HCT-15 colon
  TGI: > 100 µM
M19-MEL melanoma
  TGI: > 100 µM
OVCAR-3 ovarian
  TGI: > 100 µM
HCT-116 colon
  TGI: > 100 µM
RXF 393 renal
  TGI: > 100 µM
MALME-3M melanoma
  TGI: > 100 µM
MOLT-4 leukemia
  TGI: > 100 µM
TK-10 renal
  TGI: > 100 µM

## COc1ccc(S(=O)(=O)NNS(C)(=O)=O)cc1
UACC-62 melanoma
  TGI: > 100 µM
LXFL 529 NSCLC
  TGI: > 100 µM
M19-MEL melanoma
  TGI: > 100 µM
HCT-116 colon
  TGI: > 100 µM
RXF 393 renal
  TGI: > 100 µM
MALME-3M melanoma
  TGI: > 100 µM
MOLT-4 leukemia
  TGI: > 100 µM
TK-10 renal
  TGI: > 100 µM

## OCc1ccc(-c2ccc(-c3ccc(CO)s3)o2)s1
UACC-62 melanoma
  TGI: 0.154 µM
LXFL 529 NSCLC
  TGI: 0.0435 µM
HCT-15 colon
  TGI: 81 µM
M19-MEL melanoma
  TGI: > 100 µM
OVCAR-3 ovarian
  TGI: 0.791 µM
HCT-116 colon
  TGI: 45.2 µM
RXF 393 renal
  TGI: 1.77 µM
MALME-3M melanoma
  TGI: > 88.8 µM
MOLT-4 leukemia
  TGI: 71.5 µM
TK-10 renal
  TGI: 0.171 µM

## CN(C)c1nc(=Nc2ccc(N=c3nc(N(C)C)ss3)cc2)ss1
UACC-62 melanoma
  TGI: > 21.3 µM
LXFL 529 NSCLC
  TGI: > 52.1 µM
HCT-15 colon
  TGI: > 100 µM
M19-MEL melanoma
  TGI: 40.1 µM
OVCAR-3 ovarian
  TGI: > 78.6 µM
HCT-116 colon
  TGI: 34.1 µM
RXF 393 renal
  TGI: 41.4 µM
MALME-3M melanoma
  TGI: 51.4 µM
MOLT-4 leukemia
  TGI: 51.3 µM
TK-10 renal
  TGI: > 31.6 µM

## CCOC(=O)NC(=O)c1cn(CCCO)c(=O)[nH]c1=O
UACC-62 melanoma
  TGI: > 100 µM
HCT-15 colon
  TGI: > 100 µM
M19-MEL melanoma
  TGI: > 100 µM
OVCAR-3 ovarian
  TGI: > 100 µM
HCT-116 colon
  TGI: > 100 µM
MALME-3M melanoma
  TGI: > 100 µM
MOLT-4 leukemia
  TGI: > 100 µM
TK-10 renal
  TGI: > 100 µM

## O=C(CSc1ccc(Cl)cc1)Nc1ccc(-c2nc3ccccc3s2)c(Cl)c1
UACC-62 melanoma
  GI50: 2.77 µM
  TGI: 15.1 µM
HCT-15 colon
  GI50: 3.62 µM
  TGI: > 100 µM
OVCAR-3 ovarian
  GI50: 2.43 µM
  TGI: 8.01 µM
HCT-116 colon
  GI50: 2.08 µM
  TGI: 5.45 µM
RXF 393 renal
  GI50: 14.1 µM
  TGI: 55.8 µM
MALME-3M melanoma
  GI50: 4.77 µM
  TGI: 36.2 µM
MOLT-4 leukemia
  GI50: 4.37 µM
  TGI: > 100 µM
TK-10 renal
  GI50: 5.3 µM
  TGI: 40 µM

## c1ccc(COc2cccc3ccc[n+](Cc4ccccc4)c23)cc1
UACC-62 melanoma
  TGI: 20.1 µM
LXFL 529 NSCLC
  TGI: 20.3 µM
HCT-15 colon
  TGI: > 100 µM
M19-MEL melanoma
  TGI: 16.3 µM
RXF 393 renal
  TGI: 61.9 µM
MALME-3M melanoma
  TGI: 19.9 µM
MOLT-4 leukemia
  TGI: 51.8 µM
TK-10 renal
  TGI: 94.6 µM
